Here are results for two compounds from PMC7232676, “Fragment-Based Design of Mycobacterium tuberculosis InhA Inhibitors” (Journal of Medicinal Chemistry, 2020).

pIC50: −log10 of the molar value. Like-named read-outs stand apart in the source and are kept apart here.

One assay addresses InhA (Mycobacterium tuberculosis, UniProt P9WGR1). Nature of the assay: InhA enzymatic assay (NADH oxidation at 340 nm, 2-trans-octanoyl-CoA substrate). The class given is biochemical. The protocol: The identified fragment hits were further evaluated by an InhA enzymatic assay using 2-trans-octanoyl-CoA as a substrate.[22]
The carboxylic acid in fragment 1 (P1) was replaced by an isosteric sulfonamide as a linker to synthesize compound 6 (Figure 2b). Docking experiments with Glide XP[23] […] All the synthesized compounds were tested at a concentration of 100 μM using the InhA enzymatic assay.
InhA activity was followed by a colorimetric assay that measured the oxidation of NADH at 340 nm in the presence of 2-trans-octanoyl-CoA as described before in a buffer that contained 30 mM PIPES, pH 7.5, 50 mM NaCl, 0.1 mM EDTA, and 100 nM InhA.[26] This was preincubated for 10 min at room temperature with 0.25 mM NADH and varying concentrations of the compounds with 1% (v/v) DMSO in a 150 μL reaction volume. The reaction was started by the addition of 2-trans-octanoyl-CoA at a final concentration of 1.5 mM, prepared as described previously.[22] Reactions were followed for 20 min using a plate reader (CLARIOstar, BMG LABTECH).

The test system of assay [1] is synthesis of mycolic acids in M. tuberculosis H37Ra. Nature of the assay: Metabolic labeling with 14C acetate, TLC of FAME/MAME (mycolic acid synthesis). The class given is cell-based, Mycobacterium tuberculosis. The conditions noted are these: 14C acetate labeling. On the procedure:
(§1) Further analysis of the effect on the synthesis of mycolic acids by metabolic labeling[24],[25] of the model strain M. tuberculosis H37Ra with ^14C acetate was also explored. A 48 h cultivation in the presence of 200 μM of the compounds in the media led to 84% growth inhibition for compound 19; 40% and 33% growth inhibition for compounds 14 and 23, respectively; 38% growth inhibition for compound 24 and isoniazid; 23% growth inhibition for compounds 25 and 26.
(§2) Figure 5 (A) TLC of the metabolic labeling experiments of M. tuberculosis H37Ra with ^14C acetate treated with the compounds 14, 19, and 23–26 for the analysis of mycolic acid inhibition. Fatty acid methyl esters, FAME; mycolic acid methyl esters, MAME; isoniazid, INH. (B) TLC of the metabolic labeling experiments of M. tuberculosis H37Ra with ^14C acetate treated with the compounds 14, 19, and 23–26 for the analysis of the lipid inhibition. Trehalose monomycolates, TMM; trehalose dimycolates, TDM; phosphatidylethanolamine, PE; cardiolipin, CL; isoniazid, INH.
The culture of M. tuberculosis H37Ra was grown statically at 37 °C in Middlebrook 7H9 broth (Difco) supplemented with albumin–dextrose–catalase and 0.05% Tween 80. […]
Fatty acid methyl esters (FAMEs) and mycolic acids methyl esters (MAMEs) were prepared from whole cells harvested from 4 mL culture aliquots as previously described.[32] […] 3× and detected by autoradiography.

For assay [2], the system named is trehalose monomycolates and dimycolates in M. tuberculosis H37Ra. Put plainly: Metabolic labeling with 14C acetate, TLC of lipid profiles (TMM, TDM). The class given is cell-based, Mycobacterium tuberculosis. The note with it: 200 μM compound, 14C acetate labeling.
Text: as §2
The culture of M. tuberculosis H37Ra was grown statically at 37 °C in Middlebrook 7H9 broth (Difco) supplemented with albumin–dextrose–catalase and 0.05% Tween 80. When the culture reached the OD600nm value of 0.290, it was divided into 10 mL aliquots and tested compounds dissolved in DMSO were added at 200 μM final concentrations, while isoniazid that served as a control inhibitor was at 40 μM. The final concentration of DMSO in each culture was at 1%. […]
Lipids were extracted from whole cells as described earlier with minor modifications.[24] […] Five μL of each lipid sample was loaded on the thin-layer chromatography (TLC) silica gel plates (F254, Merck); lipids were separated in chloroform/methanol/water [20:4:0.5] and detected by autoradiography.

In another assay the test system is M. tuberculosis H37Ra. Nature of the assay: Growth inhibition of M. tuberculosis H37Ra, 48 h cultivation. The class given is cell-based, Mycobacterium tuberculosis. The note with it: Mycobacterium tuberculosis, H37RA. On the procedure: as §1
The culture of M. tuberculosis H37Ra was grown statically at 37 °C in Middlebrook 7H9 broth (Difco) supplemented with albumin–dextrose–catalase and 0.05% Tween 80. When the culture reached the OD600nm value of 0.290, it was divided into 10 mL aliquots and tested compounds dissolved in DMSO were added at 200 μM final concentrations, while isoniazid that served as a control inhibitor was at 40 μM. The final concentration of DMSO in each culture was at 1%. After 24 h of cultivation with shaking (120 rpm) in the presence of tested inhibitors, ^14C acetate (specific activity of 106 mCi/mmol) was added at a final concentration of 0.5 μCi/mL and the cells were cultivated for the next 24 h.

Chain of InhA (P9WGR1 whole entry, looked up, the tested form may be a part): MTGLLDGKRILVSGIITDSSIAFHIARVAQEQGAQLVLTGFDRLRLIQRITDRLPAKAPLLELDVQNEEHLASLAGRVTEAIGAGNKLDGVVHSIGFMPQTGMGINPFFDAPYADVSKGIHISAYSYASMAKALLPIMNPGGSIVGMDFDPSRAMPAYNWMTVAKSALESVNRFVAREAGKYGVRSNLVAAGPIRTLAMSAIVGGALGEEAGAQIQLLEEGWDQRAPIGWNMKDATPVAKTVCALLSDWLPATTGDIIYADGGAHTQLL

One may read the inhibition as how much of the control response was suppressed. For orientation: pIC50 means the IC50 on a negative log10 scale, so that one unit is a factor of ten. Low values mean a high IC50, high ones a low IC50. With `NCc1cccc(NS(=O)(=O)/C=C/c2cccc(C(F)(F)F)c2)c1` [compound 19, (E)-N-(3-(Aminomethyl)phenyl)-2-(3-(trifluoromethyl)phenyl)ethene-1-sulfonamide], at InhA (100 μM compound, read-out: Inh % (inhibition percentage of InhA)), the inhibition at 100 µM was more than 90%. At InhA (LE = (1.37 × pIC50)/HA), the “LE (ligand efficiency)” value is reported as 0.31. This compound also showed a negative logarithm of the IC50 (pIC50) against InhA (average of three experiments) of 5.40. Besides, on InhA (supplementary CSV, read-out: % inhibition), the inhibition at 100 µM was more than 90%. For the same compound, the “effect on synthesis of mycolic acids” value in assay [1] (200 μM compound) is “slight inhibition”. Further, in assay [2], the “amount of trehalose dimycolates (TDM)” value is listed as “decrease” and the “amount of trehalose monomycolates (TMM)” value is “accumulation”. In the assay with M. tuberculosis H37Ra (200 μM compound in the media, 48 h cultivation), testing at 200 µM gave an inhibition of 84%.

On to `NNC(=O)c1ccncc1` [isoniazid, reference compound], for which, in assay [1] (isoniazid control at 40 μM), the “effect on synthesis of mycolic acids” value is recorded as “complete abolition”. Moreover, the inhibition at 40 µM in the assay with M. tuberculosis H37Ra (48 h, read-out: growth inhibition) came out at 38%.
